Tests used:
Assay type in all cases: functional
OVCAR-4 = experiment: Cytotoxicity against Homo sapiens (human) OVCAR4 cells after 48 hr by sulforhodamine B assay; settings: OVCAR-4, 48 h
SN12C = experiment: Cytotoxicity against Homo sapiens (human) SN12C cells after 48 hr by sulforhodamine B assay
Malme-3M = experiment: Cytotoxicity against Homo sapiens (human) MALME-3M cells after 48 hr by sulforhodamine B assay
DU-145 = experiment: Cytotoxicity against Homo sapiens (human) DU145 cells after 48 hr by sulforhodamine B assay; settings: DU-145, 48 h
COLO 205 = experiment: Cytotoxicity against Homo sapiens (human) COLO205 cells after 48 hr by sulforhodamine B assay; settings: COLO 205, 48 h
BT-549 = experiment: Cytotoxicity against Homo sapiens (human) BT549 cells after 48 hr by sulforhodamine B assay; settings: BT-549, 48 h
SK-MEL-28 = experiment: Cytotoxicity against Homo sapiens (human) SK-MEL-28 cells after 48 hr by sulforhodamine B assay; settings: SK-MEL-28, 48 h
EKVX = experiment: Cytotoxicity against Homo sapiens (human) EKVX cells after 48 hr by sulforhodamine B assay
MDA-MB-435 = experiment: Cytotoxicity against Homo sapiens (human) MDA-MB-435 cells after 48 hr by sulforhodamine B assay; settings: MDA-MB-435, 48 h
HOP-62 = experiment: Cytotoxicity against Homo sapiens (human) HOP62 cells after 48 hr by sulforhodamine B assay; settings: HOP-62, 48 h
HCT-116 = experiment: Cytotoxicity against Homo sapiens (human) HCT116 cells after 48 hr by sulforhodamine B assay; settings: HCT-116, 48 h
HCT-15 = experiment: Cytotoxicity against Homo sapiens (human) HCT15 cells after 48 hr by sulforhodamine B assay; settings: HCT-15, 48 h
M14 = experiment: Cytotoxicity against Homo sapiens (human) M14 cells after 48 hr by sulforhodamine B assay; settings: M14, 48 h
UACC-62 = experiment: Cytotoxicity against Homo sapiens (human) UACC62 cells after 48 hr by sulforhodamine B assay; settings: UACC-62, 48 h
[1] = Cytotoxicity against Homo sapiens (human) NCI-ADR-RES cells after 48 hr by sulforhodamine B assay
HCC 2998 = experiment: Cytotoxicity against Homo sapiens (human) HCC2998 cells after 48 hr by sulforhodamine B assay; settings: HCC 2998, 48 h
MDA-MB-468 = experiment: Cytotoxicity against Homo sapiens (human) MDA-MB-468 cells after 48 hr by sulforhodamine B assay; settings: MDA-MB-468, 48 h
HT-29 = experiment: Cytotoxicity against Homo sapiens (human) HT-29 cells after 48 hr by sulforhodamine B assay; settings: HT-29, 48 h
TK-10 = experiment: Cytotoxicity against Homo sapiens (human) TK10 cells after 48 hr by sulforhodamine B assay; settings: TK-10, 48 h
KM12 = experiment: Cytotoxicity against Homo sapiens (human) KM12 cells after 48 hr by sulforhodamine B assay; settings: KM12, 48 h
SR = experiment: Cytotoxicity against Homo sapiens (human) SR cells after 48 hr by sulforhodamine B assay
MDA-MB-231 = experiment: Cytotoxicity against Homo sapiens (human) MDA-MB-231 cells after 48 hr by sulforhodamine B assay; settings: MDA-MB-231, 48 h
NCI-H460 = experiment: Cytotoxicity against Homo sapiens (human) NCI-H460 cells after 48 hr by sulforhodamine B assay; settings: NCI-H460, 48 h
OVCAR-3 = experiment: Cytotoxicity against Homo sapiens (human) OVCAR3 cells after 48 hr by sulforhodamine B assay; settings: OVCAR-3, 48 h
[2] = Cytotoxicity against Homo sapiens (human) […] cells after 48 hr by sulforhodamine B assay
SW-620 = experiment: Cytotoxicity against Homo sapiens (human) SW620 cells after 48 hr by sulforhodamine B assay; settings: SW-620, 48 h
SK-MEL-5 = experiment: Cytotoxicity against Homo sapiens (human) SK-MEL-5 cells after 48 hr by sulforhodamine B assay; settings: SK-MEL-5, 48 h
SK-OV-3 = experiment: Cytotoxicity against Homo sapiens (human) SKOV3 cells after 48 hr by sulforhodamine B assay; settings: SK-OV-3, 48 h
LOX IMVI = experiment: Cytotoxicity against Homo sapiens (human) LOXIMVI cells after 48 hr by sulforhodamine B assay
OVCAR-8 = experiment: Cytotoxicity against Homo sapiens (human) OVCAR8 cells after 48 hr by sulforhodamine B assay; settings: OVCAR-8, 48 h
NCI-H226 = experiment: Cytotoxicity against Homo sapiens (human) NCI-H226 cells after 48 hr by sulforhodamine B assay; settings: NCI-H226, 48 h

Cc1ccc(-c2cs/c(=N\NC(=O)c3ccc(O)cc3)n2-c2c(C)cccc2C)cc1
GI50 (OVCAR-4): 18.6 µM | LC50 (OVCAR-4): > 100 µM | TGI (OVCAR-4; read-out: pTGI (converted)): > 100 µM | GI50 (SN12C): 25.7 µM | LC50 (SN12C): > 100 µM | TGI (SN12C; read-out: pTGI (converted)): > 100 µM | GI50 (Malme-3M): 22.4 µM | LC50 (Malme-3M): > 100 µM | TGI (Malme-3M; read-out: pTGI (converted)): 85.1 µM | GI50 (DU-145): 28.2 µM | LC50 (DU-145): > 100 µM | TGI (DU-145; read-out: pTGI (converted)): > 100 µM | GI50 (COLO 205): 16.6 µM | LC50 (COLO 205): > 100 µM | TGI (COLO 205; read-out: pTGI (converted)): 66.1 µM | GI50 (BT-549): 21.9 µM | LC50 (BT-549): > 100 µM | TGI (BT-549; read-out: pTGI (converted)): > 100 µM | GI50 (SK-MEL-28): 30.9 µM | LC50 (concentration killing 50% of cells) (SK-MEL-28): > 100 µM | TGI (SK-MEL-28; read-out: pTGI (converted)): 83.2 µM | GI50 (EKVX): 25.1 µM | LC50 (EKVX): > 100 µM | TGI (EKVX; read-out: pTGI (converted)): > 100 µM | GI50 (MDA-MB-435): 16.6 µM | LC50 (MDA-MB-435): > 100 µM | TGI (MDA-MB-435; read-out: pTGI (converted)): 85.1 µM | GI50 (HOP-62): 23.4 µM | LC50 (HOP-62): > 100 µM | TGI (HOP-62; read-out: pTGI (converted)): 74.1 µM | GI50 (HCT-116): 22.9 µM | LC50 (HCT-116): > 100 µM | TGI (HCT-116; read-out: pTGI (converted)): > 100 µM | GI50 (HCT-15): 17 µM | LC50 (concentration killing 50% of cells) (HCT-15): > 100 µM | TGI (HCT-15; read-out: pTGI (converted)): > 100 µM | GI50 (M14): 21.4 µM | LC50 (M14): > 100 µM | TGI (M14; read-out: pTGI (converted)): 72.4 µM | GI50 (UACC-62): 16.6 µM | LC50 (UACC-62): > 100 µM | TGI (UACC-62; read-out: pTGI (converted)): 95.5 µM | GI50 [1]: 21.4 µM | LC50 [1]: > 100 µM | TGI ([1]; read-out: pTGI (converted)): 69.2 µM | GI50 (HCC 2998): 15.5 µM | LC50 (HCC 2998): > 100 µM | TGI (HCC 2998; read-out: pTGI (converted)): 43.7 µM | GI50 (MDA-MB-468): 12 µM | LC50 (MDA-MB-468): > 100 µM | TGI (MDA-MB-468; read-out: pTGI (converted)): > 100 µM | GI50 (HT-29): 17.4 µM | LC50 (HT-29): 83.2 µM | TGI (HT-29; read-out: pTGI (converted)): 38 µM | GI50 (TK-10): 19.1 µM | LC50 (TK-10): > 100 µM | TGI (TK-10; read-out: pTGI (converted)): 83.2 µM | GI50 (KM12): 18.2 µM | LC50 (KM12): > 100 µM | TGI (KM12; read-out: pTGI (converted)): 89.1 µM | GI50 (SR): 16.2 µM | LC50 (SR): > 100 µM | TGI (SR; read-out: pTGI): > 100 µM | GI50 (MDA-MB-231): 18.2 µM | LC50 (MDA-MB-231): > 100 µM | TGI (MDA-MB-231; read-out: pTGI (converted)): > 100 µM | GI50 (NCI-H460): 14.8 µM | LC50 (NCI-H460): > 100 µM | TGI (NCI-H460; read-out: pTGI (converted)): 72.4 µM | GI50 (OVCAR-3): 17.8 µM | LC50 (OVCAR-3): > 100 µM | TGI (OVCAR-3; read-out: pTGI (converted)): 47.9 µM | GI50 [2]: 20 µM | LC50 [2]: > 100 µM | TGI ([2]; read-out: pTGI (converted)): > 100 µM | GI50 (SW-620): 28.8 µM | LC50 (SW-620): > 100 µM | TGI (SW-620; read-out: pTGI (converted)): > 100 µM | GI50 (SK-MEL-5): 14.5 µM | LC50 (SK-MEL-5): 61.7 µM | TGI (SK-MEL-5; read-out: pTGI (converted)): 30.2 µM | GI50 (SK-OV-3): 30.9 µM | LC50 (SK-OV-3): > 100 µM | TGI (SK-OV-3; read-out: pTGI (converted)): > 100 µM | GI50 (LOX IMVI): 21.9 µM | LC50 (LOX IMVI): > 100 µM | TGI (LOX IMVI; read-out: pTGI (converted)): > 100 µM | GI50 (OVCAR-8): 31.6 µM | LC50 (OVCAR-8): > 100 µM | TGI (OVCAR-8; read-out: pTGI (converted)): > 100 µM | GI50 (NCI-H226): 26.3 µM | LC50 (NCI-H226): > 100 µM | TGI (NCI-H226; read-out: pTGI (converted)): > 100 µM

Source: ChEMBL document CHEMBL3046521, “Synthesis and antitumor activity of (4-hydroxyphenyl)[5-substituted alkyl/aryl)-2-thioxo-1,3,4-thiadiazol-3-yl]methanone and [(3,4-disubstituted)-1,3-thiazol-2ylidene]-4-hydroxybenzohydrazide” (2011)
